Series [1] deals with T1, human CRF2a receptor (Homo sapiens, UniProt Q13324).
T1 construct: expressed in transfected cells; host or cells: TeloHEAC cells
T1 sequence (Q13324 1-411): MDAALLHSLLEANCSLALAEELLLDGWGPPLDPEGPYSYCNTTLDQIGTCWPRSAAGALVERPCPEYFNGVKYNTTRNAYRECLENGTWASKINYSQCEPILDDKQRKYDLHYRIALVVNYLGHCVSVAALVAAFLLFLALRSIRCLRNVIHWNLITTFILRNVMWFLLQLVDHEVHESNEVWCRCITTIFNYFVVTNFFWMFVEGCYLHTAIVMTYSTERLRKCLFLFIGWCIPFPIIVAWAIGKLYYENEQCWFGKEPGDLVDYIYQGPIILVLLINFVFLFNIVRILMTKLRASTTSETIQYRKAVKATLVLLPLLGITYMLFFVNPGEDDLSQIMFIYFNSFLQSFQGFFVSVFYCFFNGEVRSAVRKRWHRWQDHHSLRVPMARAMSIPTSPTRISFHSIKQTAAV
Put plainly: Activity at human CRF2a receptor, cAMP functional assay in TeloHEAC cells. It counts as cell-based. The following applies: TeloHEAC cells stably expressing human CRF2a receptor, relative to urocortin 2 (100 nM = 100%). The method in brief:
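cAMP accumulation was measured by HTRF 665/620 nm ratio after 30 min at 37° C compound exposure (16 twofold dilutions) of CRF2a-expressing TeloHEAC cells, 10000/well, in HEPES-buffered HBSS plus IBMX. Activity was normalised to urocortin 2 at 100 nM (100%), and EC50 was the concentration giving half-maximal activation.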

The target of series [2] is T2, CFR1R receptor (Homo sapiens, UniProt P34998).
T2 construct: host or cells: CHO-K1 (clone 2)
T2 sequence (P34998 24-415): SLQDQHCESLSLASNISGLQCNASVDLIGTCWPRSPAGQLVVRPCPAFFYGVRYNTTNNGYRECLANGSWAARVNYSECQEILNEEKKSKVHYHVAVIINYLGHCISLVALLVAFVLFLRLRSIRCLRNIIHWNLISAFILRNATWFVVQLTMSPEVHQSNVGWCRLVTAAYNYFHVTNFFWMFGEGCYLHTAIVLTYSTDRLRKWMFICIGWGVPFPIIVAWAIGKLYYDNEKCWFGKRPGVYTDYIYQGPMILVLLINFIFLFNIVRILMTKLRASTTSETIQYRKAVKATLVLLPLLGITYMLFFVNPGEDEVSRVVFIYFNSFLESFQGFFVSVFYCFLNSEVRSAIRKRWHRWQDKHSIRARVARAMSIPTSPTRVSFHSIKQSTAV
Put plainly: Activity at anti-target CFR1R receptor, cAMP assay in CRF1R-overexpression CHO-K1 cells. Format: cell-based. The following applies: 100% = Sauvagine at 100 nM; for EC50: cAMP. A digest of the protocol:
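cAMP readout in CRF1R-overexpressing CHO-K1 cells (clone 2), run as for the TeloHAEC assay at 4000 cells/well final. Cells came from cryopreserved banks. Sauvagine at 100 nM defined 100% activation.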

Series [3] can be described thus: Chemical stability in buffer (pH 7.4 / pH 4.5), % purity loss. The following applies: 40° C. vs 5° C., 14 or 28 days; for Buffer stability pH 4.5 % purity loss: 100 mM acetate buffer pH 4.5; for Buffer stability pH 7.4 % purity loss: 100 mM phosphate buffer pH 7.4. Format: physicochemical. The method in brief:
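Compounds dissolved at 10 mg/mL target in 100 mM phosphate (pH 7.4) or 100 mM acetate (pH 4.5) buffer for 1 h at room temperature, then centrifuged. Diluted supernatant stored at 5 °C or 40 °C for 14 or 28 days; % purity loss by LC-UV.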

Series [4] has as its system Sprague Dawley rats. Put plainly: Effect on systolic blood pressure, telemetry in Sprague Dawley rats. It counts as in vivo, rat. The following applies: 0.1 mg/kg SC; for Systolic blood pressure (Mean) % change from baseline, 8 h / Systolic blood pressure (Mean) % change from baseline, 12 h / Systolic blood pressure (Mean) % change from baseline, 24 h: n=2; for Duration of action: last time point with an effect on BP still observed. A digest of the protocol:
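Sprague Dawley rats with abdominal-aorta telemetry catheters, recovered ≥10 days, received 0.1 mg/kg SC of compound or vehicle. Systolic pressure recorded 1 h pre-dose as baseline, then continuously up to 48 hours, expressed as % change from baseline; duration of action is last time point with a BP effect (n=2).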

*1 amine or outer side, *2 acyl side, *3 side chain or, on linkers, in order; H or OH if unused. Where a SMILES comes first, the peptide text is derived from it. Side-chain parts run from the residue outwards. [ ]: non-standard residue; d: D form. The star is where a group is joined. C16 diacid = O=C(O)CCCCCCCCCCCCCCC(=O)*; γGlu = O=C(O)[C@H](CCC(=O)[*:2])N[*:1]; αMeL = CC(C)C[C@](C)(N)C(=O)O; Dap = NC[C@H](N)C(=O)O; Aib = CC(C)(N)C(=O)O

Usually EC50 stands for the midpoint of the concentration-response curve. `CC[C@H](C)[C@H](NC(=O)[C@H](CCC(N)=O)NC(=O)[C@H](CCCCN)NC(=O)[C@H](CC(N)=O)NC(=O)[C@@H](NC(=O)[C@H](CCC(=O)O)NC(=O)[C@H](C)NC(=O)[C@H](CCC(N)=O)NC(=O)[C@H](CCC(=O)O)NC(=O)[C@H](CCCNC(=N)N)NC(=O)[C@H](CCC(N)=O)NC(=O)[C@H](CCCCN)NC(=O)[C@H](CCCCN)NC(=O)[C@H](CCC(N)=O)NC(=O)[C@H](CCCCN)NC(=O)[C@H](CCC(=O)O)NC(=O)[C@H](CCC(N)=O)NC(=O)[C@H](CCC(=O)O)NC(=O)[C@H](CC(C)C)NC(=O)[C@H](CC(C)C)NC(=O)[C@@H](NC(=O)[C@H](CCCCN)NC(=O)[C@H](CCCCNC(=O)CC[C@H](NC(=O)CCCCCCCCCCCCCCC(=O)O)C(=O)O)NC(=O)[C@H](CC(C)C)NC(=O)[C@H](CCCCN)NC(=O)[C@@H](NC(=O)[C@@H]1CCCN1C(=O)[C@H](NC(=O)[C@H](CC(=O)O)NC(=O)[C@H](CC(C)C)NC(=O)[C@H](CO)NC(=O)[C@H](CC(C)C)NC(=O)[C@@H](NC(C)=O)C(C)C)C(C)C)[C@@H](C)CC)[C@@H](C)CC)[C@@H](C)O)C(=O)N[C@@H](CC(C)C)C(=O)N[C@@H](C)C(=O)N[C@@H](CCC(N)=O)C(=O)N[C@H](C(N)=O)C(C)C` [compound 33] (Ac-VLSLD[dV]PIKLK([γGlu-C16 diacid])KILLEQEKQKKQREQAETNKQILAQV-NH2) came in with an EC50 in series [1] of 0.47 nM. Besides, in series [2], the “Emax (% I)” value stood at 13 % I and the EC50 was more than 250 nM. For the same compound, in series [3], the “Buffer stability pH 4.5 % purity loss” value is given as 0% and the “Buffer stability pH 7.4 % purity loss” value came to 18.8%. In series [4], the “Systolic blood pressure (Mean) % change from baseline, 8 h” value was −22%; the “Systolic blood pressure (Mean) % change from baseline, 12 h” value is −11%; the “Systolic blood pressure (Mean) % change from baseline, 24 h” value is reported as 16%; the Duration of action came to 17 h.

For the compound `CC[C@H](C)[C@H](NC(C)=O)C(=O)N[C@H](C(=O)N[C@@H](CC(C)C)C(=O)N[C@@H](CO)C(=O)N[C@@H](CC(C)C)C(=O)N[C@@H](CC(=O)O)C(=O)N[C@@H](C(=O)N1CCC[C@H]1C(=O)N[C@H](C(=O)N[C@@H](CCCCN)C(=O)N[C@@H](CC(C)C)C(=O)N[C@@H](CCCCNC(=O)CC[C@H](NC(=O)CCCCCCCCCCCCCCC(=O)O)C(=O)O)C(=O)N[C@@H](CCCCN)C(=O)N[C@H](C(=O)N[C@@H](CC(C)C)C(=O)N[C@@H](CC(C)C)C(=O)N[C@@H](CCC(=O)O)C(=O)N[C@@H](CCC(N)=O)C(=O)N[C@@H](CCC(=O)O)C(=O)N[C@@H](CCCCN)C(=O)N[C@@H](CCC(N)=O)C(=O)N[C@@H](CCCCN)C(=O)N[C@@H](CCCCN)C(=O)N[C@@H](CCC(N)=O)C(=O)N[C@@H](CCCNC(=N)N)C(=O)N[C@@H](CCC(=O)O)C(=O)N[C@@H](CCC(N)=O)C(=O)N[C@@H](C)C(=O)N[C@@H](CCC(=O)O)C(=O)N[C@H](C(=O)N[C@@H](CC(N)=O)C(=O)N[C@@H](C)C(=O)N[C@@H](CCC(N)=O)C(=O)N[C@H](C(=O)N[C@@H](CC(C)C)C(=O)N[C@@H](C)C(=O)N[C@@H](CCC(N)=O)C(=O)N[C@H](C(N)=O)C(C)C)[C@@H](C)CC)[C@@H](C)O)[C@@H](C)CC)[C@@H](C)CC)C(C)C)C(C)C` [compound 47] (Ac-IVLSLD[dV]PIKLK([γGlu-C16 diacid])KILLEQEKQKKQREQAETNAQILAQV-NH2), the EC50 in series [1] came out at 0.09 nM. In series [2], the “Emax (% I)” value is on record as 10 % I and the EC50 is more than 250 nM. For the same compound, in series [3], the “Buffer stability pH 4.5 % purity loss” value turned out to be 0% and the “Buffer stability pH 7.4 % purity loss” value is 9.0%. In series [4], the “Systolic blood pressure (Mean) % change from baseline, 8 h” value is −14%; the “Systolic blood pressure (Mean) % change from baseline, 12 h” value is reported as −6%; the “Systolic blood pressure (Mean) % change from baseline, 24 h” value is listed as 2%; the Duration of action is reported as 23 h.

With `CC[C@H](C)[C@H](NC(C)=O)C(=O)N[C@H](C(=O)N[C@@H](CC(C)C)C(=O)N[C@@H](CO)C(=O)N[C@@H](CC(C)C)C(=O)N[C@@H](CC(=O)O)C(=O)N[C@@H](C(=O)N1CCC[C@H]1C(=O)N[C@H](C(=O)N[C@@H](CCCCN)C(=O)N[C@@H](CC(C)C)C(=O)N[C@@H](CCCCNC(=O)CC[C@H](NC(=O)CCCCCCCCCCCCCCC(=O)O)C(=O)O)C(=O)N[C@@H](CCCCN)C(=O)N[C@H](C(=O)N[C@@H](CC(C)C)C(=O)N[C@@H](CC(C)C)C(=O)N[C@@H](CCC(=O)O)C(=O)N[C@@H](CCC(N)=O)C(=O)N[C@@H](CCC(=O)O)C(=O)N[C@@H](CCCCN)C(=O)N[C@@H](CCC(N)=O)C(=O)N[C@@H](CCCCN)C(=O)N[C@@H](CCCCN)C(=O)N[C@@H](CCC(N)=O)C(=O)N[C@@H](CCCNC(=N)N)C(=O)N[C@@H](CCC(=O)O)C(=O)N[C@@H](CCC(N)=O)C(=O)N[C@@H](C)C(=O)N[C@@H](CCC(=O)O)C(=O)N[C@H](C(=O)N[C@@H](CC(N)=O)C(=O)N[C@@H](CN)C(=O)N[C@@H](CCC(N)=O)C(=O)N[C@H](C(=O)N[C@@H](CC(C)C)C(=O)N[C@@H](C)C(=O)N[C@@H](CCC(N)=O)C(=O)N[C@H](C(N)=O)C(C)C)[C@@H](C)CC)[C@@H](C)O)[C@@H](C)CC)[C@@H](C)CC)C(C)C)C(C)C` [compound 55] (Ac-IVLSLD[dV]PIKLK([γGlu-C16 diacid])KILLEQEKQKKQREQAETN[Dap]QILAQV-NH2), the concentration for a half-maximal effect (EC50) in series [1] was determined as 0.42 nM. For the same compound, in series [2], the “Emax (% I)” value is on record as 5 % I and the 50% effective concentration (EC50) was more than 250 nM. Also, in series [3], the “Buffer stability pH 4.5 % purity loss” value is 28.9% and the “Buffer stability pH 7.4 % purity loss” value was 73.5%. Besides, in series [4], the “Systolic blood pressure (Mean) % change from baseline, 8 h” value was −31%; the “Systolic blood pressure (Mean) % change from baseline, 12 h” value was −23%; the “Systolic blood pressure (Mean) % change from baseline, 24 h” value turned out to be 0%; the Duration of action is listed as 23 h.

Consider `CC[C@H](C)[C@H](NC(C)=O)C(=O)N[C@H](C(=O)N[C@@H](CC(C)C)C(=O)N[C@@H](CO)C(=O)N[C@@H](CC(C)C)C(=O)N[C@@H](CC(=O)O)C(=O)N[C@H](C(=O)N1CCC[C@H]1C(=O)N[C@H](C(=O)N[C@@H](CCCCN)C(=O)N[C@@](C)(CC(C)C)C(=O)N[C@@H](CCCCNC(=O)CC[C@H](NC(=O)CCCCCCCCCCCCCCC(=O)O)C(=O)O)C(=O)N[C@@H](CCC(N)=O)C(=O)N[C@H](C(=O)N[C@@H](CC(C)C)C(=O)N[C@@H](CC(C)C)C(=O)N[C@@H](CCCCN)C(=O)N[C@@H](CCC(N)=O)C(=O)N[C@@H](CCC(=O)O)C(=O)N[C@@H](CCCNC(=N)N)C(=O)N[C@@H](CCC(N)=O)C(=O)N[C@@H](CCCCN)C(=O)N[C@@H](CCCCN)C(=O)N[C@@H](CCC(N)=O)C(=O)N[C@@H](CCCNC(=N)N)C(=O)N[C@@H](CCC(=O)O)C(=O)N[C@@H](CCC(N)=O)C(=O)N[C@@H](C)C(=O)N[C@@H](CCC(=O)O)C(=O)N[C@@H](CCCCN)C(=O)N[C@@H](CC(N)=O)C(=O)NC(C)(C)C(=O)N[C@@H](CCC(N)=O)C(=O)N[C@H](C(=O)N[C@@H](CC(C)C)C(=O)N[C@@H](CCC(=O)O)C(=O)N[C@@H](CCC(N)=O)C(=O)N[C@H](C(N)=O)C(C)C)[C@@H](C)CC)[C@@H](C)CC)[C@@H](C)CC)C(C)C)C(C)C` [compound 19] (Ac-IVLSLDVPIK[αMeL]K([γGlu-C16 diacid])QILLKQERQKKQREQAEKN[Aib]QILEQV-NH2), for which a half-maximal response in series [1] (EC50) required 0.28 nM. In series [2], the “Emax (% I)” value turned out to be 6 % I and the half-maximal effective concentration (EC50) is more than 250 nM. Also, in series [3], the “Buffer stability pH 4.5 % purity loss” value was 0/0 ^ % and the “Buffer stability pH 7.4 % purity loss” value is reported as 0/0 ^ %. In series [4], the “Systolic blood pressure (Mean) % change from baseline, 8 h” value was −21%; the “Systolic blood pressure (Mean) % change from baseline, 12 h” value came out at 0%; the “Systolic blood pressure (Mean) % change from baseline, 24 h” value stood at 10%; the Duration of action turned out to be 11 h.

(Values after patent publication US20260001928A1 (CORTERIA PHARMACEUTICALS, priority 2022, published 2026).)
